From PubChem BioAssay AID1996
In brackets after ≈: the same amount, converted by molar mass.

Conditions: buffer; pH 7.4; 200.0 µM

| solubility kinetic | SMILES |
| --- | --- |
| 38 µg/mL (≈ 131 µM) | O=C(CSc1ccccn1)Nc1cccc([N+](=O)[O-])c1 |
| > 48.8 µg/mL | COc1ccc(S(=O)(=O)Nc2cc(C)on2)cc1NC(C)=O |
| 35.8 µg/mL (≈ 115 µM) | Cc1ccc(C)c(N(CC(=O)N2CCCC2)S(C)(=O)=O)c1 |
| 36.6 µg/mL (≈ 124 µM) | Cc1ccc(Cl)c(NC(=O)CN2CCN(C=O)CC2)c1 |
| > 55 µg/mL | COc1ccc(/C=C/C(=O)Nc2c(C(=O)O)[nH]c3ccccc23)cc1OC |
| 37.3 µg/mL (≈ 140 µM) | CN(C)c1ccc(CC2C(=O)Nc3ccccc32)cc1 (centres undefined) |
| > 51.8 µg/mL | Cc1ccc(S(=O)(=O)N2CCc3ccccc3C2CC(=O)O)cc1 (centres undefined) |
| 7.4 µg/mL (≈ 17.1 µM) | C=CCN(c1ccccc1OC)S(=O)(=O)c1cccc(C(=O)NC2=NCCS2)c1 |
| 37.6 µg/mL (≈ 124 µM) | CC(=O)C1=C(C)OC(N)=C(C#N)C1c1cccc2ccccc12 (centres undefined) |
| 0.6 µg/mL (≈ 1.66 µM) | CC(=O)Nc1ccc(NC(=O)c2ccc(COc3ccccc3)cc2)cc1 |
| 38.5 µg/mL (≈ 136 µM) | CC(CC(=O)Nc1ccc2c(c1)OCO2)c1ccccc1 (centres undefined) |
| 28.9 µg/mL (≈ 93.1 µM) | CN1CCc2c1nc1ccccc1c2NC(=O)CN1CCCC1 |
| 2.5 µg/mL (≈ 7.74 µM) | CSc1ccccc1NC(=S)NCc1ccc(Cl)cc1 |
| > 46.2 µg/mL | O=C(O)c1ccc(-n2cc(C(=O)c3ccccc3O)cn2)cc1 |
| 24.1 µg/mL (≈ 92.6 µM) | O=C(Cn1ccccc1=O)NCc1ccc(F)cc1 |
| 4.1 µg/mL (≈ 11.8 µM) | O=S(=O)(c1ccc(F)cc1)N1CCN(CCc2ccccc2)CC1 |
| > 46.9 µg/mL | CCC(=O)c1ccc(OCC(=O)NCCc2ccccn2)cc1 |
| 21.7 µg/mL (≈ 67.5 µM) | N#CCCN(Cc1ccccc1)C(=O)Nc1ccc2c(c1)CCO2 |
| > 45 µg/mL | CNCCCC1c2ccccc2C=Cc2ccccc21.Cl |
| 14.6 µg/mL (≈ 29.6 µM) | CC(C)[C@H](NC(=O)c1ccccc1Cl)C(=O)Nc1ccc(S(=O)(=O)Nc2nccs2)cc1 |
| 16.3 µg/mL (≈ 52.9 µM) | CC(=O)c1c(-c2ccccc2)c2cc([N+](=O)[O-])ccc2[nH]c1=O |
| 2.4 µg/mL (≈ 7.27 µM) | O=C(COC(=O)c1cccc(F)c1)NC(=O)NCc1ccccc1 |

| solubility kinetic | SMILES |
| --- | --- |
| 12.7 µg/mL (≈ 25.8 µM) | O=C(COC(=O)Cc1c[nH]c2ccccc12)Nc1cc(S(=O)(=O)N2CCOCC2)ccc1Cl |
| > 50.8 µg/mL | COc1ccc(C(=O)NC(Cc2c[nH]c3ccccc23)C(=O)O)cc1 (centres undefined) |
| 51.9 µg/mL (≈ 115 µM) | NC(=O)C1CCN(c2oc(-c3cccs3)nc2S(=O)(=O)c2ccc(Cl)cc2)CC1 |
| > 42.9 µg/mL | Cc1ccc(CONC(=O)c2cccc([N+](=O)[O-])c2)cc1 |
| 3.1 µg/mL (≈ 12.3 µM) | Cc1ccccc1OCc1nc2ccccc2n1C |
| > 40.5 µg/mL | Cc1ccc(-c2c(C)n([O-])c3c([n+]2=O)CCCC3)cc1 |
| 55.7 µg/mL (≈ 146 µM) | O=[N+]([O-])c1ccc2nc(NS(=O)(=O)c3ccccc3[N+](=O)[O-])sc2c1 |
| > 42.2 µg/mL | O=C(CCS(=O)(=O)c1ccccc1)NC1CCCC1 |
| 6.6 µg/mL (≈ 18.8 µM) | O=C(Cc1cccs1)N1CCN=C1SCc1ccccc1Cl |
| 5.8 µg/mL (≈ 18.6 µM) | COc1ccc(C(=O)Nc2ccc(NC(=O)C3CC3)cn2)cc1 |
| 9 µg/mL (≈ 22.2 µM) | O=C(Cc1csc(-c2ccccc2)n1)NCC(=O)Nc1ccc(F)c(F)c1F |
| > 63.7 µg/mL | CC(Sc1ccccc1F)C(=O)Nc1cccc(S(=O)(=O)N2CCOCC2)c1 (centres undefined) |
| 6 µg/mL (≈ 20 µM) | Cc1ccccc1C(=O)O/N=C(\N)c1ccc([N+](=O)[O-])cc1 |
| 8.5 µg/mL (≈ 28.5 µM) | O=C(NCCCCc1ccccc1)c1cccc([N+](=O)[O-])c1 |
| 25 µg/mL (≈ 97.9 µM) | COc1cccc(Cn2c(=O)oc3ccccc32)c1 |
| 12.1 µg/mL (≈ 43.2 µM) | CN(C)c1cccc(C(=O)Nc2nc3ccccc3[nH]2)c1 |
| 9.1 µg/mL (≈ 28.5 µM) | Cc1ccc(N(Cc2ccccc2)C(=O)c2ccc(F)cc2)cc1 |
| 36.9 µg/mL (≈ 140 µM) | O=C(Nc1cccnc1)c1ccc2ccccc2c1O |
| 24.5 µg/mL (≈ 81.8 µM) | COc1ccc(OC)c(NC(=O)CCCc2ccccc2)c1 |
| > 51.4 µg/mL | O=C(CN1C(=O)NC2(CCOc3ccccc32)C1=O)c1cccs1 (centres undefined) |
| 31.6 µg/mL (≈ 82.2 µM) | O=C1CN(C(=O)COC(=O)CCC(=O)c2ccc(F)cc2)c2ccccc2N1 |
| 39.8 µg/mL (≈ 123 µM) | Cc1ccc(S(=O)(=O)N(C)C)cc1NC(=O)c1cccs1 |

Continued, molecule first:

| SMILES | solubility kinetic |
| --- | --- |
| Cc1cc(NC(=O)c2sc3ccccc3c2O)no1 | > 41.1 µg/mL |
| CCOC(=O)N1CCC(NC(=O)c2cccs2)CC1 | 37.8 µg/mL (≈ 134 µM) |
| CS(=O)(=O)c1ccc2nc(NC(=O)C3CCCO3)sc2c1 (centres undefined) | 43.8 µg/mL (≈ 134 µM) |
| COc1ccc2nc(NC(=O)c3cccs3)sc2c1 | < 0.3 µg/mL |
| C[C@@H]1NC(=O)/C(=C\c2ccccc2Br)NC1=O | 13.1 µg/mL (≈ 44.4 µM) |
| N#C/C(=C(/O)c1cccc(F)c1)c1nc2ccccc2s1 | 17.8 µg/mL (≈ 60.1 µM) |
| O=C(NC(=S)NC1CCS(=O)(=O)C1)c1ccccc1F (centres undefined) | 44.9 µg/mL (≈ 142 µM) |
| CC(=O)Nc1ccc2nsnc2c1 | > 29 µg/mL |
| CN1C(=O)N(C)C(c2ccccc2Cl)C2=C1CC(C)(C)CC2=O (centres undefined) | > 49.9 µg/mL |
| Cc1cccc(-c2noc(-c3ccc4c(c3)OCO4)n2)c1 | < 0.3 µg/mL |
| O=C(Nc1ccnc(-c2cccnc2)n1)c1cccs1 | 2.9 µg/mL (≈ 10.3 µM) |
| O=C(COC(=O)/C=C/c1cccc(Br)c1)NC1CCCC1 | 4.1 µg/mL (≈ 11.6 µM) |
| Cc1c(C)n(Cc2ccccc2)c2ncnc(Cl)c12 | 0.3 µg/mL (≈ 1.1 µM) |
| COCCNC(=O)c1cc2cc(Br)cc(Br)c2oc1=O | 1.6 µg/mL (≈ 3.95 µM) |
| COc1cc2c(cc1OC)CN(C(=O)c1ccc([N+](=O)[O-])o1)CC2 | > 49.8 µg/mL |
| Cc1cc(C)nc(NC(=O)CSc2ncccn2)n1 | > 41.3 µg/mL |
| COc1ccc(NC(=O)NC2(C(=O)N3CCOCC3)CCCCC2)cc1 | 43 µg/mL (≈ 119 µM) |
| CCCn1cc(C(=O)OCC)c(=O)c2cc(F)c(F)cc21 | 34.9 µg/mL (≈ 118 µM) |
| COc1ccc2cc3cc(C(=O)NCCC(C)C)oc3nc2c1 | < 0.3 µg/mL |
| c1ccc(CSc2nc3ccccc3[nH]2)cc1 | 2.1 µg/mL (≈ 8.74 µM) |
| c1ccc2cc(Cn3ccnc3)ccc2c1 | 28.5 µg/mL (≈ 137 µM) |
| COc1ccc(-c2cnc(N)n2C)cc1 | 26 µg/mL (≈ 128 µM) |
| COc1ccc(OCC(O)CN2CCOCC2)cc1 (centres undefined) | 40.1 µg/mL (≈ 150 µM) |
| CN(CC(O)CN1CCOCC1)S(=O)(=O)[O-].[Na+] (centres undefined) | > 41.4 µg/mL |
| COc1ccc(NC(=S)NC(=O)/C=C/c2ccco2)cc1 | 1.2 µg/mL (≈ 3.97 µM) |

| SMILES | solubility kinetic |
| --- | --- |
| COc1cc(OC)cc(C(=O)OCC(=O)Nc2ccc3[nH]c(=O)[nH]c3c2)c1 | 4.4 µg/mL (≈ 11.8 µM) |
| O=C(O)c1cc(S(=O)(=O)N2CCCCC2)ccc1N1CCOCC1 | > 53.2 µg/mL |
| NCC(=O)CCC(=O)O | 18.6 µg/mL (≈ 142 µM) |
| O=C(NCc1cccnc1)Nc1cccc(NC(=O)NCc2cccnc2)c1F | 7.6 µg/mL (≈ 19.3 µM) |
| CC(C)(C)c1ccc(NC(=O)c2cc[n+]([O-])cc2)cc1 | 36.1 µg/mL (≈ 134 µM) |
| C=CCc1cccc2cc(C(=O)N3CCOCC3)c(=O)oc12 | 42.8 µg/mL (≈ 143 µM) |
| CCOC(=O)C1(Cc2cccc(F)c2)CCN(C(=O)c2ccoc2C)CC1 | 52.2 µg/mL (≈ 140 µM) |
| Cc1cc(C)nc(NC(=O)c2cccc(Br)c2)n1 | 39.8 µg/mL (≈ 130 µM) |
| CCOC(=O)c1cnc(C(F)(F)F)nc1Oc1ccccc1 | 11.7 µg/mL (≈ 37.5 µM) |
| COc1cc(CNCc2ccc3c(c2)OCO3)c([N+](=O)[O-])cc1OC | 46.6 µg/mL (≈ 135 µM) |
| O=C(Nc1ccc2c(c1)OCO2)C1CC(=O)N(c2ccc3c(c2)OCCO3)C1 (centres undefined) | 3.6 µg/mL (≈ 9.41 µM) |
| Brc1ccc(CNCC2CCCO2)cc1 (centres undefined) | 33.9 µg/mL (≈ 125 µM) |
| CCNC(=O)C(=O)Nc1cc2c3c(c1)CCN3C(=O)CC2 | > 43.1 µg/mL |
| CCC(=O)NNc1nc2c(F)cccc2s1 | > 35.9 µg/mL |
| CCOC(=O)Cc1csc(NC(=O)CN2CCN(CC)CC2)n1 | 3.8 µg/mL (≈ 11.2 µM) |
| COCCCNC(=O)C1CC(=O)N(CCc2ccc(F)cc2)C1 (centres undefined) | > 48.4 µg/mL |
| CC(=O)NC(=S)Nc1cc(C(=O)O)ccc1Cl | > 40.9 µg/mL |
| N#CC1=C(N)Oc2cc(N)ccc2C1c1ccc(F)cc1F (centres undefined) | > 44.9 µg/mL |
| Br.CC(C)(C)c1cc(C2=CSC3=NCCN23)cc(C(C)(C)C)c1O | 10.7 µg/mL |
| O=C(O)c1ncc(Cl)c(Cl)c1Cl | 33.1 µg/mL (≈ 146 µM) |
| Brc1ccc(-c2noc(-c3ccccc3)n2)o1 | < 0.3 µg/mL |
| O=C(CCNC(=O)c1ccccc1)NCC1CCCCC1 | > 43.3 µg/mL |
| O=C(NCCO)C(=O)Nc1cc2c3c(c1)CCC(=O)N3CCC2 | > 47.6 µg/mL |
| Cc1cccc(/N=C/c2sc3ccccc3c2O)n1 | 1.1 µg/mL (≈ 4.1 µM) |
| CCc1ccc(-c2cnc3nc[nH]c(=O)c3n2)cc1 | > 37.8 µg/mL |

| SMILES | solubility kinetic |
| --- | --- |
| Cc1ccc(C(=O)NC(C)c2ccc3c(c2)OCO3)s1 (centres undefined) | > 43.4 µg/mL |
| CCN(CC)C(=S)Nc1ccc(C(=O)OC)cc1 | > 40 µg/mL |
| Cc1ccc([N+](=O)[O-])cc1N(CC(=O)N1CCCCC1)S(C)(=O)=O | > 53.3 µg/mL |
| O=C(c1ccco1)N1CCN(C23CC4CC(CC(C4)C2)C3)CC1 | > 47.2 µg/mL |
| Clc1ccc(OCC#CCN2CCOCC2)cc1.O=C(O)C(=O)O | 50.3 µg/mL |
| COc1ccc(CCC(C)N2CCOCC2)cc1 (centres undefined) | 31.9 µg/mL (≈ 128 µM) |
| O=C(COc1ccc(F)c(Cl)c1)N1CCCCCCC1 | 32.8 µg/mL (≈ 109 µM) |
| COc1cc(/C=C(\NC(C)=O)C(=O)O)cc(OC)c1OC | > 44.3 µg/mL |
| CN(C)/C=N/c1ncc(C(=O)OC(C)(C)C)s1 | > 38.3 µg/mL |
| CCN(CC)CC(O)CCCCCCCCC(=O)OC.Cl (centres undefined) | > 48.6 µg/mL |
| CCN1CCN(CC(=O)c2cc(Cl)ccc2Cl)CC1 | > 45.2 µg/mL |
| COC(=O)c1ccccc1NC(=O)c1cc(C)no1 | 1.1 µg/mL (≈ 4.23 µM) |
| Cc1[nH]c(SCC(=O)c2c(N)n(C)c(=O)n(C)c2=O)nc1Cc1ccccc1 | > 59.9 µg/mL |
| COc1ccc(C(=O)N2CCN(CC(=O)N3CCOCC3)CC2)cc1 | 40.6 µg/mL (≈ 117 µM) |
| Nc1c(Cl)cc(Cl)cc1C(=O)OCC(=O)N1CCOCC1 | > 50 µg/mL |
| CCOC(=O)c1ccc(NC(=O)CCC(=O)NCc2ccco2)cc1 | 4.7 µg/mL (≈ 13.6 µM) |
| CC(N)C12CC3CC(CC(C3)C1)C2.Cl (centres undefined) | > 32.4 µg/mL |
| CN(C)C(=S)NC(=O)C12CC3(C)CC(C)(CC(C)(C3)C1)C2 | 1 µg/mL (≈ 3.24 µM) |
| O=C(NC(=S)NCc1ccc(Cl)cc1Cl)c1ccco1 | 1.4 µg/mL (≈ 4.25 µM) |
| CCCCc1ccccc1NC(=S)NC1CCCC1 | 30.5 µg/mL (≈ 110 µM) |
| COC(=O)c1ccc(NC(=O)c2ccc(OC(C)=O)c(OC)c2)cc1 | 3.1 µg/mL (≈ 9.03 µM) |
| CCc1nc2oc3ccc(C)cc3c(=O)c2cc1C(=O)OC | < 0.6 µg/mL |
| CCCCC/C(=N/O)c1c(C)[nH]c2ccccc12 | 29.8 µg/mL (≈ 122 µM) |
| CN1CCCC(C(=O)c2ccc(-c3ccccc3)cc2)C1 (centres undefined) | 27.3 µg/mL (≈ 97.7 µM) |
| CC1CC(C)CN(C(=O)COC(=O)c2ccc(N3CCCC3=O)cc2)C1 (centres undefined) | > 53.8 µg/mL |
